{"source": "patent US10821152B2", "about": "“Methods, agents and compositions for treatment of inflammatory conditions” (Betanien Hospital, priority 2014, dated 2020)", "key": {"[1]": {"test_system": "patients with rheumatoid arthritis", "conditions": "human, in vivo", "text": "They were not taking any therapies for osteoporosis during this period."}, "[2]": {"test_system": "patients with rheumatoid arthritis", "test": "Long term Degarelix treatment of rheumatoid arthritis patients: clinical variables", "format": "in vivo, human", "parameters": "LH: unit not given beside the values", "excerpt": "[table] [table] […] Two examples of patients with continued RA improvement over several weeks despite stably low levels of LH"}, "[3]": {"test_system": "patient with systemic lupus erythematosus", "test": "Treatment of lupus patient with degarelix", "format": "in vivo, human", "excerpt": "The patient has a medical history of a multimorbid patient. Systemic lupus erythematosus (SLE) was diagnosed in 1988 based on Raynauds, skin changes, arthralgia, high titre lupus anticoagulant, ANA, SSA, and SSB. Chilblain type changes in hands and feet (FIGS. 6-8). […] The patient suffered cardiac arrest in 2012, coronary stenosis was observed. The patient had kidney failure since 2012, required dialysis, stabilized creatinine around 150, osteoporosis, COPD, and is a smoker.\nBy September 2014, we had no treatment options left. Therefore, we decided to offer […] degarelix. GnRH antagonists have shown anti-inflammatory effects and therefore we considered that degarelix, a depot GnRH antagonist, may have a therapeutic effect in lupus. • Sep. 15, 2014, […] received […] loading dose of degarelix, 240 mg sc. Assessment of Response\nProteinuria decline is linked to improved lupus nephritis outcomes. Korbet et al studied 61 patients in a controlled trial comparing standard therapy with plasmapheresis for severe lupus nephritis. […] They had constant, increasing proteinuria in 2014."}, "[4]": {"test_system": "patients with risk factors for cardiovascular disease", "test": "Cardiovascular and metabolic risk factors in patients offered Degarelix", "format": "in vivo, human", "excerpt": "In our patient group who were offered Degarelix, some patients had risk factors for cardiovascular disease, metabolic syndrome, lipidemia or hypoalphalipoproteinemia (low HDL). None of these patients had recently started medications prior to the GnRH antagonist that could explain the changes in blood pressure, HbA1C, fasting glucose or lipids. See Example 1 for patient information."}}, "note": "Several values for one entry are separate records, joined by “and”; a condition that tells them apart may be missing. Identical values can stand only once. Non-standard residues stand in square brackets, D forms with d. Residues, ends and D or L forms follow the SMILES beside them. *: point of attachment. dPhe(4-NHCONH2) = NC(=O)Nc1ccc(C[C@@H](N)C(=O)O)cc1; Dihydroorotyl(S) = O=C1C[C@@H](C(=O)*)NC(=O)N1; dPhe(4-Cl) = N[C@H](Cc1ccc(Cl)cc1)C(=O)O; Phe(4-NH2) = Nc1ccc(C[C@H](N)C(=O)O)cc1; d2Nal = N[C@H](Cc1ccc2ccccc2c1)C(=O)O; Lys(iPr) = CC(C)NCCCC[C@H](N)C(=O)O; d3Pal = N[C@H](Cc1cccnc1)C(=O)O"}
{"smiles": "CC(=O)N[C@H](Cc1ccc2ccccc2c1)C(=O)N[C@H](Cc1ccc(Cl)cc1)C(=O)N[C@H](Cc1cccnc1)C(=O)N[C@@H](CO)C(=O)N[C@@H](Cc1ccc(NC(=O)[C@@H]2CC(=O)NC(=O)N2)cc1)C(=O)N[C@H](Cc1ccc(NC(N)=O)cc1)C(=O)N[C@@H](CC(C)C)C(=O)N[C@@H](CCCCNC(C)C)C(=O)N1CCC[C@H]1C(=O)N[C@H](C)C(N)=O", "note": "[Degarelix] (Ac-[d2Nal][dPhe(4-Cl)][d3Pal]S[Phe(4-NH2)](Dihydroorotyl(S))[dPhe(4-NHCONH2)]L[Lys(iPr)]P[dA]-NH2)", "values": [{"measurement": "bone mineral density in hips", "setting": "[1]", "result": "improved"}, {"measurement": "ACR % response", "setting": "[2]; RA Patient 3, 4 wks", "result": 30, "unit": "%"}, {"measurement": "ESR", "setting": "[2]; RA Patient 3, 4 wks", "result": 41}, {"measurement": "LH", "setting": "[2]; RA Patient 3, 4 wks", "result": "<0.3"}, {"measurement": "ACR % response", "setting": "[2]; RA Patient 3, 8 wks", "result": 40, "unit": "%"}, {"measurement": "ESR", "setting": "[2]; RA Patient 3, 8 wks", "result": 36}, {"measurement": "LH", "setting": "[2]; RA Patient 3, 8 wks", "result": "<0.3"}, {"measurement": "ACR % response", "setting": "[2]; RA Patient 3, 12 wks", "result": 50, "unit": "%"}, {"measurement": "ESR", "setting": "[2]; RA Patient 3, 12 wks", "result": 20}, {"measurement": "LH", "setting": "[2]; RA Patient 3, 12 wks", "result": "<0.3"}, {"measurement": "ESR", "setting": "[2]; RA Patient 3, baseline", "result": 46}, {"measurement": "LH", "setting": "[2]; RA Patient 3, baseline", "result": 2}, {"measurement": "ACR % response", "setting": "[2]; RA Patient 4, 3½ wks", "result": 20, "unit": "%"}, {"measurement": "ESR", "setting": "[2]; RA Patient 4, 3½ wks", "result": 68}, {"measurement": "LH", "setting": "[2]; RA Patient 4, 3½ wks", "result": "<0.3"}, {"measurement": "ACR % response", "setting": "[2]; RA Patient 4, 9 wks", "result": 50, "unit": "%"}, {"measurement": "ESR", "setting": "[2]; RA Patient 4, 9 wks", "result": 36}, {"measurement": "LH", "setting": "[2]; RA Patient 4, 9 wks", "result": "<0.3"}, {"measurement": "ESR", "setting": "[2]; RA Patient 4, baseline", "result": 78}, {"measurement": "LH", "setting": "[2]; RA Patient 4, baseline", "result": 8}, {"measurement": "power Doppler (inflammatory activity) on ultrasound, shoulder and right MCP 4", "setting": "[2]; RA Patient 5, after treatment (FIG. 2B, 2D, 2F)", "result": "no power Doppler"}, {"measurement": "effusion over the right wrist on ultrasound", "setting": "[2]; RA Patient 6, by 3.5 weeks (FIG. 4)", "result": "much smaller"}, {"measurement": "Physician assessment (0-100)", "setting": "[2]; baseline, c1-c6=RA Patients 1-6", "result": "85 and 90 and 80 and 70"}, {"measurement": "ANA (<1)", "setting": "[3]; 07.11.14", "result": "26↑"}, {"measurement": "FSH (<12)", "setting": "[3]; 07.11.14", "result": "<0.1"}, {"measurement": "LH (<12)", "setting": "[3]; 07.11.14", "result": "<0.3"}, {"measurement": "Total urinary protein", "setting": "[3]; 07.11.14", "result": 0.17, "unit": "g/L"}, {"measurement": "ANA (<1)", "setting": "[3]; 14.10.14", "result": "28↑"}, {"measurement": "FSH (<12)", "setting": "[3]; 14.10.14", "result": "<0.1"}, {"measurement": "Total urinary protein", "setting": "[3]; 14.10.14", "result": "0.15^2 g/L"}, {"measurement": "FSH (<12)", "setting": "[3]; 15.09.14 (day of loading dose)", "result": "14↑"}, {"measurement": "LH (<12)", "setting": "[3]; 15.09.14 (day of loading dose)", "result": 11}, {"measurement": "Total urinary protein", "setting": "[3]; 15.09.14 (day of loading dose)", "result": "0.78↑ g/L"}, {"measurement": "ANA (<1)", "setting": "[3]; 15.09.14 (day of loading dose), out of range", "result": ">32↑"}, {"measurement": "FSH (<12)", "setting": "[3]; 23.09.14", "result": 2}, {"measurement": "LH (<12)", "setting": "[3]; 23.09.14", "result": "<0.3"}, {"measurement": "Total urinary protein", "setting": "[3]; 23.09.14", "result": "0.75↑ g/L"}, {"measurement": "proteinuria", "setting": "[3]; at 2 months", "result": "in remission"}, {"measurement": "morning pain", "setting": "[3]; before treatment", "result": 3.5, "unit": "h"}, {"measurement": "proteinuria", "setting": "[3]; by 1 month", "result": "complete remission"}, {"measurement": "morning pain", "setting": "[3]; by 8 weeks", "result": 0, "unit": "h"}, {"measurement": "morning pain", "setting": "[3]; by day 5", "result": 1.5, "unit": "h"}, {"measurement": "morning pain", "setting": "[3]; by day 10", "result": 0, "unit": "h"}, {"measurement": "ulcers on hands and feet", "setting": "[3]; by day 10 of treatment", "result": "several ulcers had healed"}, {"measurement": "ANA (<1)", "setting": "[3]; column 23.09.14 (25.09.14)", "result": "31↑"}, {"measurement": "fasting glucose", "setting": "[4]; Patient 1, October 2014", "result": 6.3, "unit": "mmol/L"}, {"measurement": "fasting glucose", "setting": "[4]; Patient 1, September 2014", "result": 6.6, "unit": "mmol/L"}, {"measurement": "metabolic syndrome criteria", "setting": "[4]; Patient 1, after degarelix treatment", "result": "no longer fulfills the criteria for metabolic syndrome"}, {"measurement": "HBA1c (4.3-6.1%)", "setting": "[4]; Patient 1, at 8 months", "result": 5.7, "unit": "%"}, {"measurement": "HBA1c (4.3-6.1%)", "setting": "[4]; Patient 1, baseline", "result": 6.4, "unit": "%"}, {"measurement": "blood pressure", "setting": "[4]; Patient 1, baseline", "result": "151/90"}, {"measurement": "HBA1c (4.3-6.1%)", "setting": "[4]; Patient 1, by 2 weeks", "result": 6.1, "unit": "%"}, {"measurement": "fasting glucose (4.0-6.0)", "setting": "[4]; Patient 4, 3 months after starting Degarelix", "result": 6.6, "unit": "mmol/L"}, {"measurement": "fasting glucose (4.0-6.0)", "setting": "[4]; Patient 4, April 2014, before Degarelix", "result": 8.9, "unit": "mmol/L"}, {"measurement": "fasting glucose (4.0-6.0)", "setting": "[4]; Patient 4, December 2013, before Degarelix", "result": 8.5, "unit": "mmol/L"}, {"measurement": "HBA1c (4.3-6.1%)", "setting": "[4]; Patient 4, baseline", "result": 6.9, "unit": "%"}, {"measurement": "HBA1c (4.3-6.1%)", "setting": "[4]; Patient 4, by 1 month", "result": 6.6, "unit": "%"}, {"measurement": "HBA1c (4.3-6.1%)", "setting": "[4]; Patient 4, by 2 months", "result": 6.4, "unit": "%"}, {"measurement": "HBA1c (4.3-6.1%)", "setting": "[4]; Patient 4, by 4 months", "result": 6.2, "unit": "%"}, {"measurement": "fasting glucose (4.0-6.0)", "setting": "[4]; Patient 4, by 4 months", "result": 6.0, "unit": "mmol/L"}, {"measurement": "HBA1c (4.3-6.1%)", "setting": "[4]; Patient 4, by 12 months", "result": 5.9, "unit": "%"}, {"measurement": "HDL (1.0-2.7 mmol/L)", "setting": "[4]; Patient 7, baseline September 2014", "result": 0.68, "unit": "mmol/L"}, {"measurement": "HDL (1.0-2.7 mmol/L)", "setting": "[4]; Patient 7, by 1 week", "result": 0.73, "unit": "mmol/L"}, {"measurement": "HDL (1.0-2.7 mmol/L)", "setting": "[4]; Patient 7, by 2 weeks", "result": 0.75, "unit": "mmol/L"}, {"measurement": "HDL (1.0-2.7 mmol/L)", "setting": "[4]; Patient 7, by 3 weeks", "result": 1.13, "unit": "mmo/L"}]}
